Source: the supplement of paper PMC10307832

What was measured:
Assay in all cases: relative viability (nuclei count vs DMSO), 5 days (fraction); higher = more cells survive
[1] = compound: C1CC2=C(C1)C=C(C=C2)OC3=NC(=C4C(=N3)N(C=N4)CC5=CC=C(C=C5)C6=CC=CC=C6)N[C@@H](CC7=CC=CC=C7)CO [QS11] + CC(=O)Nc1cccc(-n2c(=O)n(C3CC3)c(=O)c3c(Nc4ccc(I)cc4F)n(C)c(=O)c(C)c32)c1 [Trametinib] (partner 0.02 µM)
In short: (§1)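 Medians of duplicate plates are given as relative viability. That measure is the nuclei count in treated wells divided by the count in vehicle wells. Counts were taken on 4× images of lung cancer cell lines in 1536-well plates, 5 days after pin-tool dosing the day after seeding with one drug alone or a fixed anchor-drug dose plus five library-drug doses (not always all listed) in √10 steps.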

[2] = compound: C[As](C)SC[C@H](NC(=O)CC[C@H](N)C(=O)O)C(=O)NCC(=O)O [Darinaparsin] + Cc1nc(NC(=O)N2CCC[C@H]2C(N)=O)sc1-c1ccnc(C(C)(C)C(F)(F)F)c1 [Alpelisib] (partner 2 µM)
In short: as §1

[3] = compound: C1CC2=C(C1)C=C(C=C2)OC3=NC(=C4C(=N3)N(C=N4)CC5=CC=C(C=C5)C6=CC=CC=C6)N[C@@H](CC7=CC=CC=C7)CO [QS11] + Nc1nc2[nH]cc(CCc3ccc(C(=O)N[C@@H](CCC(=O)O)C(=O)O)cc3)c2c(=O)[nH]1 [Pemetrexed] (partner 0.2 µM)
In short: as §1

[4] = compound: C[As](C)SC[C@H](NC(=O)CC[C@H](N)C(=O)O)C(=O)NCC(=O)O [Darinaparsin] + Nc1ncn([C@H]2C[C@H](O)[C@@H](CO)O2)c(=O)n1 [Decitabine] (partner 2 µM)
In short: as §1

| Cell Line | relative viability ([1]; first compound 0.08 µM) | relative viability ([1]; first compound 0.253 µM) | relative viability ([1]; first compound 0.8 µM) | relative viability ([1]; first compound 2.53 µM) | relative viability ([1]; first compound 8 µM) | relative viability ([2]; first compound 0.08 µM) | relative viability ([2]; first compound 0.8 µM) | relative viability ([2]; first compound 2.53 µM) | relative viability ([2]; first compound 8 µM) | relative viability ([3]; first compound 0.08 µM) | relative viability ([3]; first compound 0.253 µM) | relative viability ([3]; first compound 0.8 µM) | relative viability ([3]; first compound 2.53 µM) | relative viability ([3]; first compound 8 µM) | relative viability ([4]; first compound 0.08 µM) | relative viability ([4]; first compound 0.8 µM) | relative viability ([4]; first compound 2.53 µM) | relative viability ([4]; first compound 8 µM) |
| --- | --- | --- | --- | --- | --- | --- | --- | --- | --- | --- | --- | --- | --- | --- | --- | --- | --- | --- |
| NCI-H441 | 0.59 | 0.424 | 0.545 | 0.56 | 0.486 | 0.774 | 0.635 | 0.809 | 0.893 | 0.252 | 0.275 | 0.233 | 0.277 | 0.282 | 0.255 | 0.21 | 0.245 | 0.19 |
| NCI-H460 | 0.13 | 0.158 | 0.131 | 0.0849 | 0.0752 | 0.566 | 0.549 | 0.417 | 0.821 | 0.056 | 0.0683 | 0.0585 | 0.0792 | 0.0751 | 0.749 | 0.496 | 0.461 | 0.59 |
| NCI-H520 | 0.676 | 0.789 | 0.83 | 0.65 | 0.755 | 1.07 | 0.712 | 0.885 | 1.04 | 0.791 | 0.871 | 0.863 | 0.783 | 0.488 | 0.528 | 0.55 | 0.472 | 0.552 |
| NCI-H596 | 0.776 | 0.755 | 0.692 | 0.683 | 0.706 | 0.511 | 0.621 | 0.421 | 0.602 | 0.456 | 0.468 | 0.507 | 0.528 | 0.476 | 1.02 | 1.11 | 1 | 1.15 |
| NCI-H647 | 0.472 | 0.428 | 0.411 | 0.575 | 0.544 | 1.57 | 1.16 | 0.827 | 1.31 | 0.2 | 0.146 | 0.155 | 0.159 | 0.202 | 0.444 | 0.39 | 0.346 | 0.476 |
| NCI-H650 | 0.825 | 0.934 | 1.06 | 0.959 | 0.983 | 1.17 | 1.15 | 1.27 | 1.31 | 0.834 | 0.819 | 0.83 | 0.841 | 0.839 | 0.296 | 0.35 | 0.333 | 0.338 |
| NCI-H661 | 0.624 | 0.594 | 0.473 | 0.46 | 0.477 | 0.632 | 0.692 | 0.683 | 0.668 | 1.03 | 0.911 | 0.794 | 0.953 | 0.857 | 0.581 | 0.528 | 0.523 | 0.652 |
| NCI-H838 | 0.558 | 0.535 | 0.355 | 0.469 | 0.383 | 1.18 | 1 | 0.846 | 1.14 | 0.245 | 0.237 | 0.236 | 0.237 | 0.24 | 0.488 | 0.425 | 0.47 | 0.513 |
| NCI-H1355 | 0.447 | 0.342 | 0.378 | 0.378 | 0.433 | 0.955 | 0.8 | 0.785 | 0.92 | 1.03 | 0.993 | 0.782 | 1.08 | 1.02 | 0.38 | 0.357 | 0.304 | 0.369 |
| NCI-H1395 | 0.935 | 1.04 | 1.19 | 1.01 | 1.03 | 1.17 | 0.912 | 0.909 | 0.945 | 0.84 | 0.911 | 1.09 | 0.917 | 1.16 | 0.79 | 0.659 | 0.727 | 0.645 |
| NCI-H1437 | 0.551 | 0.561 | 0.474 | 0.477 | 0.499 | 1.17 | 0.942 | 0.92 | 1.16 | 0.314 | 0.331 | 0.301 | 0.286 | 0.271 | 0.653 | 0.565 | 0.583 | 0.599 |
| NCI-H1651 | 0.855 | 0.887 | 0.761 | 0.856 | 0.922 | 1.11 | 0.994 | 0.931 | 1.27 | 0.575 | 0.616 | 0.582 | 0.598 | 0.584 | 0.589 | 0.66 | 0.596 | 0.665 |
| NCI-H1666 | 0.798 | 0.852 | 0.868 | 0.8 | 0.749 | 1.11 | 0.967 | 1.14 | 1.06 | 0.834 | 0.937 | 0.824 | 0.739 | 0.651 | 0.679 | 0.74 | 0.766 | 0.786 |
| NCI-H1734 | 0.645 | 0.626 | 0.648 | 0.546 | 0.565 | 0.829 | 0.67 | 0.669 | 0.766 | 0.374 | 0.393 | 0.393 | 0.472 | 0.424 | 0.558 | 0.483 | 0.504 | 0.529 |
| NCI-H1755 | 0.747 | 0.755 | 0.54 | 0.681 | 0.618 | 1.26 | 0.896 | 0.892 | 1.28 | 0.554 | 0.443 | 0.39 | 0.446 | 0.355 | 0.748 | 0.801 | 0.714 | 0.784 |
| NCI-H1792 | – | 0.514 | 0.39 | 0.312 | 0.306 | 0.684 | 0.575 | 0.493 | 1.03 | – | 0.603 | 0.925 | 0.629 | 0.514 | 0.694 | 0.512 | – | 0.588 |
| NCI-H1793 | 0.491 | 0.392 | 0.408 | 0.469 | 0.759 | 0.716 | 0.935 | 0.643 | 0.958 | 0.725 | 0.777 | 1.11 | 1.1 | 0.85 | 0.461 | 0.483 | – | 0.485 |
| NCI-H1915 | 0.292 | 0.292 | – | 0.288 | 0.309 | 1.12 | 1.06 | 1.03 | 1.11 | 0.583 | 0.538 | – | 0.567 | 0.529 | 0.288 | 0.239 | 0.254 | 0.256 |
